Data on five compounds can be found in US20170166598A1, “HETEROARYL COMPOUNDS FOR KINASE INHIBITION” (ARIAD PHARMACEUTICALS, INC., priority 2014, published 2017).

By IC50 is commonly meant the concentration that inhibits the measured activity by half.

Holding throughout (assay type): cell-based
Assay [1] has as its target T1, Her2 exon 20 YVMA insertion (A775_G776ins YVMA) (Homo sapiens, UniProt P04626, INS775YVMA).
T1 construct: expressed in transfected cells; host or cells: Ba/F3 (murine pro-B) cells transduced with lentivirus from pLVX-IRES puro
The assay can be described thus: Ba/F3-Her2 Exon20 YVMA cell anti-proliferative assay (CellTiter 96 MTS, 72 h). Particulars: Ba/F3-Her2 Exon20 YVMA cells. The gist of the method:
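IL-3-independent Ba/F3 cells transduced with the YVMA insertion were treated with compound in 4-fold dilutions from 10,000 nM top. After 72 h at 37° C, viable cells were quantified by MTS tetrazolium conversion, with absorbance read at 490 nm after 2 h.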

Assay [2] concerns the target T2, human EGFR L858R and T790M double mutation (Homo sapiens, UniProt P00533, L858R/T790M).
T2 construct: expressed in transfected cells; host or cells: Ba/F3 (murine pro-B) cells transduced with lentivirus from pLVX-IRES puro
The assay can be described thus: Ba/F3-EGFR L858R/T790M cell anti-proliferative assay (CellTiter 96 MTS, 72 h). Particulars: Ba/F3-EGFR L858R/T790M cells. How it is done: An expression vector, pLVX-IRES puro (Clontech) coding for human EGFR L858R and T790M double mutation, was transfected into HEK293 cells by the Trans-Lentiviral ORF Packaging System (Thermo Scientific), to produce virus encoding EGFR L858R and T790M double mutations. Ba/F3 (DSMZ) cells maintained in RPMI 1640 medium supplemented with 10% fetal bovine serum, 200 μM L-glutamine/l 200 μg/mL penicillin/200 μg/mL streptomycin (Life Technology) and 10 ng/mL IL-3 (R&D system), were infected by EGFR L858R and T790M double mutation virus and subsequently selected by puromycin (Life Technology) selection and IL-3 depletion. […] The anti-proliferative activity of compounds was determined as follows: BaF3-EGFR L858R/T790M cells seeded in 96 well plates (2500 cells/well) were treated with test compound (dissolved in DMSO) at a series of concentrations (4-fold dilution, top concentration: 10,000 nM). The plates were incubated for 72 h in a 37° C. incubator with 5% CO2, and the number of viable cells in each well were measured indirectly by CellTiter 96® Aqueous One Solution Cell Proliferation Assay (Promega; this assay is a colorimetric method for determining the number of viable cells through measurement of their metabolic activity by detection of enzymatic conversion of tetrazolium salts into blue formazan derivatives). Reagent (20 μL) was added into each well, and the plates were returned to the incubator for 2 h. The absorbance in each well was then measured at 490 nm using an Envision plate reader (Perkin Elmer).

Assay [3] has as its target T3, human EGFR E746-A750 deletion and T790M Mutation (Homo sapiens, UniProt P00533, DEL746-750/T790M).
T3 construct: expressed in transfected cells; host or cells: Ba/F3 (murine pro-B) cells transduced with lentivirus from pLVX-IRES puro
The experiment in a line: Ba/F3-EGFR-Del/T790M cell anti-proliferative assay (CellTiter 96 MTS, 72 h). Particulars: Ba/F3-EGFR-Del/T790M cells. In a few lines: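 Ba/F3 cells made IL-3-independent by lentiviral human EGFR E746-A750 del/T790M, puromycin-selected. Cells treated 72 h at 37 °C with compound, 4-fold dilutions from 10,000 nM top concentration. Viability read by MTS tetrazolium-to-formazan conversion, absorbance at 490 nm after 2 h with reagent.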

The target of assay [4] is T4, human EGFR exon 20 insertion NPG (H773_V774insNPG) (Homo sapiens, UniProt P00533, INS772GNP).
T4 construct: expressed in transfected cells; host or cells: Ba/F3 (murine pro-B) cells transduced with lentivirus from pLVX-IRES puro
The assay can be described thus: Ba/F3-EGFR-Exon20-NPG cell anti-proliferative assay (CellTiter 96 MTS, 72 h). To be noted: Ba/F3-EGFR-Exon20-NPG cells. In a few lines:
(§1)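 Ba/F3 cells made IL-3-independent by lentiviral EGFR exon 20 NPG or ASV insertion were exposed 72 h at 37 °C to 4-fold dilutions of compound (top 10,000 nM). Viability read by MTS tetrazolium conversion, absorbance 490 nm after 2 h.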

The target in assay [5] is T5, human EGFR exon 20 insertion ASV (V769_D770insASV) (Homo sapiens, UniProt P00533, INS769ASV).
T5 construct: expressed in transfected cells; host or cells: Ba/F3 (murine pro-B) cells transduced with lentivirus from pLVX-IRES puro
The assay can be described thus: Ba/F3-EGFR-Exon20-ASV cell anti-proliferative assay (CellTiter 96 MTS, 72 h). To be noted: Ba/F3-EGFR-Exon20-ASV cells. The gist of the method: as §1

T4 sequence (P00533 with tags, fused parts or gaps INS772GNP): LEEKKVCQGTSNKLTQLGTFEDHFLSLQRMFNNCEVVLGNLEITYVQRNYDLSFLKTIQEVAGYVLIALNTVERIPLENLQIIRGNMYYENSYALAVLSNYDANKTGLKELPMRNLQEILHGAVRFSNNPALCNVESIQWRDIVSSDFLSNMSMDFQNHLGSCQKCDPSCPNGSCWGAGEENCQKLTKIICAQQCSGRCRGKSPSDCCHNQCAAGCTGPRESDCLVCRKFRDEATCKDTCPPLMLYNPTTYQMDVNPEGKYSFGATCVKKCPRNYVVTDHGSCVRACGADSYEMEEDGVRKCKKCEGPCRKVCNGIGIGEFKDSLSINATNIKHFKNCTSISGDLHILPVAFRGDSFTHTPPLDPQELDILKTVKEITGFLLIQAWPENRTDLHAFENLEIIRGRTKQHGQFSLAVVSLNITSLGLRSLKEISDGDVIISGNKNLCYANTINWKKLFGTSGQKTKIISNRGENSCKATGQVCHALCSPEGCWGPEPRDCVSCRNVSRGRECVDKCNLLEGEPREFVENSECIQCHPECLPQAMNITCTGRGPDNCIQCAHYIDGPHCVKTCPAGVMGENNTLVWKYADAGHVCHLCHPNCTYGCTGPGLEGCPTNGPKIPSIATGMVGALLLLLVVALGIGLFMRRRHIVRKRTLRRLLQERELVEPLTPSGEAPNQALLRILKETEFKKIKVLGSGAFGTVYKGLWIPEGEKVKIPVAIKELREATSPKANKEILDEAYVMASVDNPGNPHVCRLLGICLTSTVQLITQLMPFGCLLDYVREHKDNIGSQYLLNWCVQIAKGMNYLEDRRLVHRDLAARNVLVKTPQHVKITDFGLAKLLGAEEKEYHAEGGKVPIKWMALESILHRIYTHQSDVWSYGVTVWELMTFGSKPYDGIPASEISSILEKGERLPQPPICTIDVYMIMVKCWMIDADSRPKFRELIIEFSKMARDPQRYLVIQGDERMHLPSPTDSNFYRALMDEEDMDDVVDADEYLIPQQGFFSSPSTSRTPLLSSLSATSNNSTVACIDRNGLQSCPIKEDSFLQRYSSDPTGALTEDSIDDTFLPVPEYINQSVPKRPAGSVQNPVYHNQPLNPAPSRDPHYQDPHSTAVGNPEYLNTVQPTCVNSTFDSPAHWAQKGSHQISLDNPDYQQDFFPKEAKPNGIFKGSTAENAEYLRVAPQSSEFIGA
T5 sequence (P00533 with tags, fused parts or gaps INS769ASV): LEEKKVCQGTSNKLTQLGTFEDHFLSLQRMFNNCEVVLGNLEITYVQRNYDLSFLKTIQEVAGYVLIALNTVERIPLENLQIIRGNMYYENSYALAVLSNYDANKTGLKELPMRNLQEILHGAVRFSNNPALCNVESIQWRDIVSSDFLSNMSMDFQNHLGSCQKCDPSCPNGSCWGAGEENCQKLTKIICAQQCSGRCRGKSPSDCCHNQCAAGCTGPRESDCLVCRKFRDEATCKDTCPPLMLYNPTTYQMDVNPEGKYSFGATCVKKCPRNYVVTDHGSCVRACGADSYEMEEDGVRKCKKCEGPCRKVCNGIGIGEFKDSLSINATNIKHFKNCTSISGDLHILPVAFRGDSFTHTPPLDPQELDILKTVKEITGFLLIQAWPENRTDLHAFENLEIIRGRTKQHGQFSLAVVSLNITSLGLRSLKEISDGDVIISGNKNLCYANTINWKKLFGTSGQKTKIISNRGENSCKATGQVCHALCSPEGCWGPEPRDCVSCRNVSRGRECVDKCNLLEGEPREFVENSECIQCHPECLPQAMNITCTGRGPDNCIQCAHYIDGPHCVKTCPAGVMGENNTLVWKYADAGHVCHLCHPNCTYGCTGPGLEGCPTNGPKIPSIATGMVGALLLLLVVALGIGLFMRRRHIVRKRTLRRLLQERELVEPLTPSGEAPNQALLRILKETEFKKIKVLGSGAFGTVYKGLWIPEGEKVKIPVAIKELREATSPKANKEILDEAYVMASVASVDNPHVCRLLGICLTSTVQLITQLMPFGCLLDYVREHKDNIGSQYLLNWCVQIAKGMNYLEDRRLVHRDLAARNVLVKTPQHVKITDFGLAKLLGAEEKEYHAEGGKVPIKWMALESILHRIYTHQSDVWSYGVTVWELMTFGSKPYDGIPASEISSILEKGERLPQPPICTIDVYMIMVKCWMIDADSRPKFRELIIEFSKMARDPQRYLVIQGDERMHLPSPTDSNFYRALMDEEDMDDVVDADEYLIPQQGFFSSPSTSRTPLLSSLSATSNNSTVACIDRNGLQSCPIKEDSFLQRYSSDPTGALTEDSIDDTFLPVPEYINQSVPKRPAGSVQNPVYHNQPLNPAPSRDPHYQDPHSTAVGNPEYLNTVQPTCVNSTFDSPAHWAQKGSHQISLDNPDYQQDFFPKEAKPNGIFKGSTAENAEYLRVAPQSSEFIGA
T1 sequence (P04626 with tags, fused parts or gaps INS775YVMA): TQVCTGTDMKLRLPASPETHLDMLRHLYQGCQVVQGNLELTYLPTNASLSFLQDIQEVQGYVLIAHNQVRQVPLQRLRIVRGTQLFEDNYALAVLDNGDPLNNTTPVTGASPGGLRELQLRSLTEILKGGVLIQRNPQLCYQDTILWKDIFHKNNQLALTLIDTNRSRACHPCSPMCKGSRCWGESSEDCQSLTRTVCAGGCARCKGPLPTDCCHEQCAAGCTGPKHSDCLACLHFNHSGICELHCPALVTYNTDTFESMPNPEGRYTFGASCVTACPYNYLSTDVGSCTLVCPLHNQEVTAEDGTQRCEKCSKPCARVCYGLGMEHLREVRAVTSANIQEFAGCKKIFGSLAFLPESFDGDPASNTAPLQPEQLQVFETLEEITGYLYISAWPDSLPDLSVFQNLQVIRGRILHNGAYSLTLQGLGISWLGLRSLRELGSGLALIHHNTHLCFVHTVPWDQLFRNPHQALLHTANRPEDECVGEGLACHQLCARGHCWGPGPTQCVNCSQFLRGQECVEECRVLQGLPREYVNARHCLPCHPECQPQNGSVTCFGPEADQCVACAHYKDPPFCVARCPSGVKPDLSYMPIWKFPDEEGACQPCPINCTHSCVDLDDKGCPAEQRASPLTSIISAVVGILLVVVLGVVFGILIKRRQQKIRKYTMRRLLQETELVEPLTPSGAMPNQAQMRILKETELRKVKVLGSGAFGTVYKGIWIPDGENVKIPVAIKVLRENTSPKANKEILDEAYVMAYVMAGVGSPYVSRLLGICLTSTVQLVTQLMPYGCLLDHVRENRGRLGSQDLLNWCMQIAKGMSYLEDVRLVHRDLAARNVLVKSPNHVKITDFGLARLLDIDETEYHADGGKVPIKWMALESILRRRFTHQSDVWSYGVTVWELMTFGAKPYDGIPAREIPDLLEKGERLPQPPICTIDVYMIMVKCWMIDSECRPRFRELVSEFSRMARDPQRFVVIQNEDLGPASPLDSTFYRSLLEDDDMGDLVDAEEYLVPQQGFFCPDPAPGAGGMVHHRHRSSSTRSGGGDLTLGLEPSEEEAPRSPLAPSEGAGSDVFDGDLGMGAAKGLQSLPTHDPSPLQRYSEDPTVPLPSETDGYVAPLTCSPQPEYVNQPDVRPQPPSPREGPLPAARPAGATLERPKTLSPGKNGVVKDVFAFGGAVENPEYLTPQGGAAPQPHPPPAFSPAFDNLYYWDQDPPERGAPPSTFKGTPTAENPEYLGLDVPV
T2 sequence (P00533 25-1210 T790M/L858R): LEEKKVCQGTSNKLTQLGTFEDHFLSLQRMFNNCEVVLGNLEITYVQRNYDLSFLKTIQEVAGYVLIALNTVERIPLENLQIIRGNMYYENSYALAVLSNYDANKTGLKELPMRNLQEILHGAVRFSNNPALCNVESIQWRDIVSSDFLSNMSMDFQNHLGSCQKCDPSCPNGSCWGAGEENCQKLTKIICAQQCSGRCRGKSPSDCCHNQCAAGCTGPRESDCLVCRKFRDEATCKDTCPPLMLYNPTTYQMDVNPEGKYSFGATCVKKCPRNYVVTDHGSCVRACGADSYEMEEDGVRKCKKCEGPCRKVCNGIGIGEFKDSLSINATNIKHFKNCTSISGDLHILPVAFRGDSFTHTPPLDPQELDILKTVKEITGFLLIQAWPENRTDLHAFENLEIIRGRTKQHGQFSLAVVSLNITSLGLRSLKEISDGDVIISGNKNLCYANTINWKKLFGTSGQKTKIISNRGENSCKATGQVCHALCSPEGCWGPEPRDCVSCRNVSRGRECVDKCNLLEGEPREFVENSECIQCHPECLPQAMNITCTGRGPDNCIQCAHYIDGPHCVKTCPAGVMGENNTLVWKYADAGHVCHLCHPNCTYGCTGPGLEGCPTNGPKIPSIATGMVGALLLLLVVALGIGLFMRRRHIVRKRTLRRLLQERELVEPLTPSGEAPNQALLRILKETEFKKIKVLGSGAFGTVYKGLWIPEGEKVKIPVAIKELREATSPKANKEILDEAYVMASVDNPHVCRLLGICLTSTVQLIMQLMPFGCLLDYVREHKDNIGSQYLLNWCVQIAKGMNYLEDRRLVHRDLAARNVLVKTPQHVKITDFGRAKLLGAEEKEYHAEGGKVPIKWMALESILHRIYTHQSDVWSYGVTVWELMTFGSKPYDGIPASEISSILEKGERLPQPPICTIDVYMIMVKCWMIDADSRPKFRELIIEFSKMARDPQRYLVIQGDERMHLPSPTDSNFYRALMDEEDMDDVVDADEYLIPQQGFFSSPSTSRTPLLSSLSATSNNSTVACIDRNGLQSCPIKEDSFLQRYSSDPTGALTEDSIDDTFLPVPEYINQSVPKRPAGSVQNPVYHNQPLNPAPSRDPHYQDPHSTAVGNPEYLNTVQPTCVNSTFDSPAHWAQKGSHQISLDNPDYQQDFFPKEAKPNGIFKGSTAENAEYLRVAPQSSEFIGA

On to `C=CC(=O)Nc1cc(Nc2ncc(C=C)c(-c3cn4c5c(cccc35)CCC4)n2)c(OC)cc1N(C)CCN(C)C` [Example 27, N-(5-((4-(5,6-dihydro-4H-pyrrolo[3,2,1-ij]quinolin-1-yl)-5-vinylpyrimidin-2-yl)amino)-2-((2-(dimethylamino)ethyl)(methyl)amino)-4-methoxyphenyl)acrylamide], for which the IC50 in assay [1], in assay [4] and in assay [5] was less than 100 nM in each case. The “EGFR exon 21 L858R and exon 20 T790M mutation IC50” value in assay [2] is listed as “A (IC50 value for the indicated mutant below about 100 nM)”. Further, the “EGFR exon 19 deletion and exon 20 T790M mutation IC50” value in assay [3] was “A (IC50 value for the indicated mutant below about 100 nM)”.
For the compound `C=CC(=O)Nc1cc(Nc2ncc(CCC3CCOC3)c(-c3cn4c5c(cccc35)CCC4)n2)c(OC)cc1N(C)CCN(C)C` (stereo not shown) [Example 36, N-(5-((4-(5,6-dihydro-4H-pyrrolo[3,2,1-ij]quinolin-1-yl)-5-(2-(tetrahydrofuran-3-yl)ethyl)pyrimidin-2-yl)amino)-2-((2-(dimethylamino)ethyl)(methyl)amino)-4-methoxyphenyl)acrylamide], the IC50 in assay [1] is 100 to 500 nM; in assay [4] it was less than 100 nM; in assay [5], 100 to 500 nM. In addition, in assay [2], the “EGFR exon 21 L858R and exon 20 T790M mutation IC50” value was “B (IC50 value for the indicated mutant between about 100 to about 500 nM)”. Further, the “EGFR exon 19 deletion and exon 20 T790M mutation IC50” value in assay [3] was “A (IC50 value for the indicated mutant below about 100 nM)”.
In the case of `C=CC(=O)Nc1cc(Nc2ncc(CCC(C)(C)O)c(-c3cn4c5c(cccc35)CCC4)n2)c(OC)cc1N(C)CCN(C)C` [Example 37, N-(5-((4-(5,6-dihydro-4H-pyrrolo[3,2,1-ij]quinolin-1-yl)-5-(3-hydroxy-3-methylbutyl)pyrimidin-2-yl)amino)-2-((2-(dimethylamino)ethyl)(methyl)amino)-4-methoxyphenyl)acrylamide], the IC50 is 100 to 500 nM in assay [1], less than 100 nM in assay [4] and less than 100 nM in assay [5]. The “EGFR exon 21 L858R and exon 20 T790M mutation IC50” value in assay [2] is on record as “B (IC50 value for the indicated mutant between about 100 to about 500 nM)”. Besides, the “EGFR exon 19 deletion and exon 20 T790M mutation IC50” value in assay [3] is reported as “A (IC50 value for the indicated mutant below about 100 nM)”.
Take `C=CC(=O)Nc1cc(Nc2ncc(CCC(O)CC)c(-c3cn4c5c(cccc35)CCC4)n2)c(OC)cc1N(C)CCN(C)C` (stereo not shown) [Example 38, N-(5-((4-(5,6-dihydro-4H-pyrrolo[3,2,1-ij]quinolin-1-yl)-5-(3-hydroxypentyl)pyrimidin-2-yl)amino)-2-((2-(dimethylamino)ethyl)(methyl)amino)-4-methoxyphenyl)acrylamide]: the IC50 in assay [1], in assay [4] and in assay [5] was less than 100 nM throughout. Also, in assay [2], the “EGFR exon 21 L858R and exon 20 T790M mutation IC50” value is “A (IC50 value for the indicated mutant below about 100 nM)”. The “EGFR exon 19 deletion and exon 20 T790M mutation IC50” value in assay [3] is listed as “A (IC50 value for the indicated mutant below about 100 nM)”.
Consider `C=CC(=O)Nc1cc(Nc2ncc(CCC(N)=O)c(-c3cn4c5c(cccc35)CCC4)n2)c(OC)cc1N(C)CCN(C)C` [Example 40, N-(5-((5-(3-amino-3-oxopropyl)-4-(5,6-dihydro-4H-pyrrolo[3,2,1-ij]quinolin-1-yl)pyrimidin-2-yl)amino)-2-((2-(dimethylamino)ethyl)(methyl)amino)-4-methoxyphenyl)acrylamide], for which the IC50 in assay [1] is greater than 1000 nM; in assay [4], 100 to 500 nM; in assay [5], 500 to 1000 nM. Further, the “EGFR exon 21 L858R and exon 20 T790M mutation IC50” value in assay [2] was “B (IC50 value for the indicated mutant between about 100 to about 500 nM)”. Besides, the “EGFR exon 19 deletion and exon 20 T790M mutation IC50” value in assay [3] is given as “A (IC50 value for the indicated mutant below about 100 nM)”.
